Data from patent US8435990B2, “Dihydropyrimidone amides as P2X7 modulators” (Roche Palo Alto LLC, priority 2009, dated 2013).

Molecular target: T1, human P2X7 (Homo sapiens, UniProt Q99572)
T1 construct: 1321N1 cells stably expressing the full length human P2X7 gene (1321N1-hP2X7)
T1 sequence (Q99572 1-595): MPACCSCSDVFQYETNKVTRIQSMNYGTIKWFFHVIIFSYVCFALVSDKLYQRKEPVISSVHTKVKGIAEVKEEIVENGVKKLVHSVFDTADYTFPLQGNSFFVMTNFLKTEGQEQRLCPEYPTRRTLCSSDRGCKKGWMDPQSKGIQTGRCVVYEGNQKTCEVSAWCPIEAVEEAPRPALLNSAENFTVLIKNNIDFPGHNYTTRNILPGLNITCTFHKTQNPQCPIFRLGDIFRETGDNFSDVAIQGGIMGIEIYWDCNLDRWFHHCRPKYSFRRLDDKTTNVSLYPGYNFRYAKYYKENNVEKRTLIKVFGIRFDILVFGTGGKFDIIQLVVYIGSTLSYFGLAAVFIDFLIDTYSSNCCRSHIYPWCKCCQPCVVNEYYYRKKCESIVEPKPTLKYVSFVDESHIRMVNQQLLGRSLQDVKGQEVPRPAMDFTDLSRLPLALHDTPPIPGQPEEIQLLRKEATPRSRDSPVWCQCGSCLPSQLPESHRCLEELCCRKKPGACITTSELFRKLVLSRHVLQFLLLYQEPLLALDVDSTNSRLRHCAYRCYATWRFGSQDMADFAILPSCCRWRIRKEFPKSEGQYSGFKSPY
Assay: P2X7 modulator pIC50 of Table 1 (assay not given; Intracellular Calcium Flux (FLIPR) Assay assumed)
Format: cell-based
Experimental: Intracellular Calcium Flux (FLIPR) Assay
Stock solutions of compounds were prepared from powders as a 10 mM DMSO stock solution. These solutions were stored at RT during the two week period of these experiments to prevent freeze-thaw of the DMSO stocks. The DMSO stocks were added to the appropriate assay buffer at a concentration of 10 μM, and then diluted serially to the final concentrations that were tested. No observable precipitate was formed at any time during this process. The aqueous solutions of compounds as well as ATP (Sigma A7699) and BzATP (Sigma B6396) were prepared fresh for each day of experiment.
1321N1 cells stably expressing the full length human P2X7 gene (1321N1-hP2X7) and HEK293 cells stably expressing the full length rat P2X7 gene (HEK293-rP2X7) were obtained from the Roche Cell Culture Facility. 1321N1-hP2X7 cells were grown in Dulbecco's Modified Eagle's Medium (DMEM) high glucose supplemented with 10% FBS and 250 μg/mL G418. HEK293-rP2X7 cells were grown in DMEM/F-12 supplemented with 10% FBS, 1 mM CaCl2, 2 mM MgCl2, 2 mM L-Glutamine and 500 μg/ml G418. Cells were split such that they never became >70% confluent.
On the day prior to the experiment, 1321N1-hP2X7 or HEK293-rP2X7 cells were released into suspension with calcium-free PBS+Versene and washed by centrifugation with calcium-free PBS to remove the Versene. Cells were resuspended in growth medium at a density of 2.5×10^5 cells/mL and seeded into black walled, clear bottom 96 well plates (50,000 cells/well) approximately 18 hr prior to intracellular calcium flux experiments.
On the day of the experiment, plates were washed with FLIPR buffer (calcium- and magnesium-free Hank's Balanced Salt Solution (HBSS) supplemented with 10 mM Hepes, 2.5 mM probenecid and 2 mM calcium chloride) using a BIO-TEK 96 channel plate washer and incubated with […] fluo-3 dye at 37° C. for one hr. The dye was then removed by plate washing and the cells were allowed to equilibrate for 20 min at room temperature with antagonist or vehicle (FLIPR buffer). Agonist (100 μM BzATP final concentration for hP2X7; 5μM BzATP final concentration or rP2X7) was added online with the FLIPR and fluorescence measurements made at 1 sec intervals for 60 sec followed by 3 sec intervals for a further 4 min (5 min total). A final addition of 5 μM ionomycin was made and the maximal BzATP-evoked fluorescence normalized to the maximal ionomycin-evoked fluorescence.

IC50	Compound
88.1 nM	Cc1ccc2c(NC(=O)C3=CN(C)C(=O)N[C@H]3c3ccc(F)cc3)c(C)ccc2n1 [Compound 21, (S)-4-(4-Fluoro-phenyl)-1-methyl-2-oxo-1,2,3,4-tetrahydro-pyrimidine-5-carboxylic acid (2,6-dimethyl-quinolin-5-yl)-amide]
43.2 nM	Cc1ccc(=O)n(-c2ccc(C)c(NC(=O)C3=CN(C)C(=O)N[C@H]3c3ccc(F)cc3)c2)c1 [Compound 71, (S)-4-(4-Fluoro-phenyl)-1-methyl-2-oxo-1,2,3,4-tetrahydro-pyrimidine-5-carboxylic acid [2-methyl-5-(5-methyl-2-oxo-2H-pyridin-1-yl)-phenyl]-amide]
22.9 nM	Cc1ccc(-c2cc(C)n(C[C@@H](O)CO)n2)cc1NC(=O)C1=CN(C)C(=O)N[C@H]1c1ccc(F)cc1 [Compound 19, (S)-4-(4-Fluoro-phenyl)-1-methyl-2-oxo-1,2,3,4-tetrahydropyrimidine-5-carboxylic acid {5-[1-((R)-2,3-dihydroxy-propyl)-5-methyl-1H-pyrazol-3-yl]-2-methyl-phenyl}-amide]
56.9 nM	Cc1cnn(-c2cc(NC(=O)C3=CN(C)C(=O)N[C@H]3c3ccc(F)cc3)c(C)cc2F)c(=O)c1 [Compound 73, (S)-4-(4-Fluoro-phenyl)-1-methyl-2-oxo-1,2,3,4-tetrahydro-pyrimidine-5-carboxylic acid [4-fluoro-2-methyl-5-(4-methyl-6-oxo-6H-pyridazin-1-yl)-phenyl]-amide]
20 nM	Cc1ccc(-n2ncccc2=O)cc1NC(=O)C1=CN(C)C(=O)N[C@H]1c1ccc(F)cc1 [Compound 26]
11.5 nM	Cc1ccc(-c2ccnn(C)c2=O)cc1NC(=O)C1=CN(C)C(=O)N[C@H]1c1ccc(F)cc1 [Compound 22, (S)-4-(4-Fluoro-phenyl)-1-methyl-2-oxo-1,2,3,4-tetrahydro-pyrimidine-5-carboxylic acid [2-methyl-5-(2-methyl-3-oxo-2,3-dihydro-pyridazin-4-yl)-phenyl]-amide]
22.1 nM	Cc1ccc(-c2nnc(C)n2C)cc1NC(=O)C1=CN(C)C(=O)N[C@H]1c1ccc(F)cc1 [Compound 18, (S)-4-(4-Fluoro-phenyl)-1-methyl-2-oxo-1,2,3,4-tetrahydro-pyrimidine-5-carboxylic acid [5-(4,5-dimethyl-4H-[1,2,4]triazol-3-yl)-2-methyl-phenyl]-amide]
105 nM	Cc1ccc(-n2ncccc2=O)cc1NC(=O)C1=CN(C)C(=O)N[C@H]1c1cccc(F)c1 [Compound 49, (S)-4-(3-Fluoro-phenyl)-1-methyl-2-oxo-1,2,3,4-tetrahydro-pyrimidine-5-carboxylic acid [2-methyl-5-(6-oxo-6H-pyridazin-1-yl)-phenyl]-amide]
160 nM	Cc1ccc2[nH]c(=O)ccc2c1NC(=O)C1=CN(C)C(=O)N[C@H]1c1ccc(F)cc1 [Compound 31, (S)-4-(4-Fluoro-phenyl)-1-methyl-2-oxo-1,2,3,4-tetrahydro-pyrimidine-5-carboxylic acid (6-methyl-2-oxo-1,2-dihydro-quinolin-5-yl)-amide]
40.3 nM	Cc1cc2cnn(CC(=O)N(C)C)c2cc1NC(=O)C1=CN(C)C(=O)N[C@H]1c1ccc(F)cc1 [Compound 58]
140 nM	COC[C@@H](O)Cn1nc(-c2ccc(C)c(NC(=O)C3=CN(C)C(=O)N[C@H]3c3ccc(F)cc3)c2)cc1C [Compound 36, (S)-4-(4-Fluoro-phenyl)-1-methyl-2-oxo-1,2,3,4-tetrahydro-pyrimidine-5-carboxylic acid {5-[1-((S)-2-hydroxy-3-methoxy-propyl)-5-methyl-1H-pyrazol-3-yl]-2-methyl-phenyl}-amide]
41.2 nM	COc1cc(C)c(NC(=O)C2=CN(C)C(=O)NC2c2ccc(F)cc2)cc1OC (centres unmarked) [Compound 2, 4-(4-Fluoro-phenyl)-1-methyl-2-oxo-1,2,3,4-tetrahydro-pyrimidine-5-carboxylic acid (4,5-dimethoxy-2-methyl-phenyl)-amide]
53.1 nM	CN1C=C(C(=O)Nc2cccc3c(=O)n(CCO)ccc23)[C@H](c2ccc(F)cc2)NC1=O [Compound 53, (S)-4-(4-Fluoro-phenyl)-1-methyl-2-oxo-1,2,3,4-tetrahydro-pyrimidine-5-carboxylic acid [2-(2-hydroxy-ethyl)-1-oxo-1,2-dihydro-isoquinolin-5-yl]-amide]
20.2 nM	Cc1cc(Cl)c(OCCO)cc1NC(=O)C1=CN(C)C(=O)N[C@H]1c1cccc(F)c1 [Compound 30, (S)-4-(3-Fluoro-phenyl)-1-methyl-2-oxo-1,2,3,4-tetrahydro-pyrimidine-5-carboxylic acid [4-chloro-5-(2-hydroxy-ethoxy)-2-methyl-phenyl]-amide]
72.4 nM	Cc1ccc(-c2ccc(=O)n(C)n2)cc1NC(=O)C1=CN(C)C(=O)N[C@H]1c1ccc(F)cc1 [Compound 40, (S)-4-(4-Fluoro-phenyl)-1-methyl-2-oxo-1,2,3,4-tetrahydro-pyrimidine-5-carboxylic acid [2-methyl-5-(1-methyl-6-oxo-1,6-dihydro-pyridazin-3-yl)-phenyl]-amide]
18.2 nM	Cc1cc2cn[nH]c2cc1NC(=O)C1=CN(C)C(=O)N[C@H]1c1ccc(F)cc1 [Compound 47, (S)-4-(4-Fluoro-phenyl)-1-methyl-2-oxo-1,2,3,4-tetrahydro-pyrimidine-5-carboxylic acid (5-methyl-1H-indazol-6-yl)-amide]
15.7 nM	CN1C=C(C(=O)Nc2cc(-c3ccnn(C)c3=O)ccc2F)[C@H](c2ccc(F)cc2)NC1=O [Compound 72, (S)-4-(4-Fluoro-phenyl)-1-methyl-2-oxo-1,2,3,4-tetrahydro-pyrimidine-5-carboxylic acid [2-fluoro-5-(2-methyl-3-oxo-2,3-dihydro-pyridazin-4-yl)-phenyl]-amide]
59.8 nM	COc1cc(C)c(NC(=O)C2=CNC(=O)N[C@H]2c2ccc(F)cc2)cc1OC [Compound 4, (S)-4-(4-Fluoro-phenyl)-2-oxo-1,2,3,4-tetrahydro-pyrimidine-5-carboxylic acid (4,5-dimethoxy-2-methyl-phenyl)-amide]
12.2 nM	Cc1cc2cnn(C)c2cc1NC(=O)C1=CN(C)C(=O)N[C@H]1c1ccc(F)cc1 [Compound 46]
21.6 nM	Cc1ccc(-n2ccccc2=O)cc1NC(=O)C1=CN(C)C(=O)N[C@H]1c1ccc(F)cc1 [Compound 54, (S)-4-(4-Fluoro-phenyl)-1-methyl-2-oxo-1,2,3,4-tetrahydro-pyrimidine-5-carboxylic acid [2-methyl-5-(2-oxo-2H-pyridin-1-yl)-phenyl]-amide]
33.1 nM	Cc1cc(F)c(-c2cccn(C)c2=O)cc1NC(=O)C1=CN(C)C(=O)N[C@H]1c1ccc(F)cc1 [Compound 70, (S)-4-(4-Fluoro-phenyl)-1-methyl-2-oxo-1,2,3,4-tetrahydro-pyrimidine-5-carboxylic acid [4-fluoro-2-methyl-5-(1-methyl-2-oxo-1,2-dihydro-pyridin-3-yl)-phenyl]-amide]
35.1 nM	COc1cc(C)c(NC(=O)C2=CN(C)C(=O)N[C@H]2c2ccc(F)cc2)cc1OC [Compound 6, (S)-4-(4-Fluoro-phenyl)-1-methyl-2-oxo-1,2,3,4-tetrahydro-pyrimidine-5-carboxylic acid (4,5-dimethoxy-2-methyl-phenyl)-amide]
37.6 nM	Cc1ccc(-n2ccc(=O)n(C)c2=O)cc1NC(=O)C1=CN(C)C(=O)N[C@H]1c1ccc(F)cc1 [Compound 68, (S)-4-(4-Fluoro-phenyl)-1-methyl-2-oxo-1,2,3,4-tetrahydro-pyrimidine-5-carboxylic acid [2-methyl-5-(3-methyl-2,4-dioxo-3,4-dihydro-2H-pyrimidin-1-yl)-phenyl]-amide]
